Measurements taken from PubChem BioAssay AID1963977 (Molecular Pharmacology Branch, DTP, NCI, 2024).
pIC50: −log10 of the molar value.

Test system: 624824-186-R-J3-PDC multicell spheroids, viability
Test: Anticancer human tumor 624824-186-R-J3-PDC patient-derived colon adenocarcinoma cell line growth inhibition [PI3K]
Conditions: for pIC50: curve of first compound; for viability, T/C: stronger effect = lower value
Outline: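 High-throughput combination screen: PI3K inhibitors crossed with targeted small molecules on complex spheroids of tumor cells, HUVEC and MSCs at 37 degrees C, 5% CO2. Top concentration was at or near clinical Cmax (otherwise 10 microM), with half-log decrements.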

[1] = second compound 0.00316 µM, first compound 0.0316 µM
[2] = second compound 0.00316 µM, first compound 0.1 µM
[3] = second compound 0.00316 µM, first compound 0.316 µM
[4] = second compound 0.00316 µM, first compound 1 µM
[5] = second compound 0.00316 µM, first compound 3.16 µM
[6] = second compound 0.00316 µM, first compound 10 µM
[7] = second compound 0.01 µM, first compound 0.0316 µM
[8] = second compound 0.01 µM, first compound 0.1 µM
[9] = second compound 0.01 µM, first compound 0.316 µM
[10] = second compound 0.01 µM, first compound 1 µM
[11] = second compound 0.01 µM, first compound 3.16 µM
[12] = second compound 0.01 µM, first compound 10 µM
[13] = second compound 0.0316 µM, first compound 0.0316 µM
[14] = second compound 0.0316 µM, first compound 0.1 µM
[15] = second compound 0.0316 µM, first compound 0.316 µM
[16] = second compound 0.0316 µM, first compound 1 µM
[17] = second compound 0.0316 µM, first compound 3.16 µM
[18] = second compound 0.0316 µM, first compound 10 µM
[19] = second compound 0.1 µM, first compound 0.0316 µM
[20] = second compound 0.1 µM, first compound 0.1 µM
[21] = second compound 0.1 µM, first compound 0.316 µM
[22] = second compound 0.1 µM, first compound 1 µM
[23] = second compound 0.1 µM, first compound 3.16 µM
[24] = second compound 0.1 µM, first compound 10 µM
[25] = second compound 0.316 µM, first compound 0.0316 µM
[26] = second compound 0.316 µM, first compound 0.1 µM
[27] = second compound 0.316 µM, first compound 0.316 µM
[28] = second compound 0.316 µM, first compound 1 µM
[29] = second compound 0.316 µM, first compound 3.16 µM
[30] = second compound 0.316 µM, first compound 10 µM
[31] = second compound 1 µM, first compound 0.0316 µM
[32] = second compound 1 µM, first compound 0.1 µM
[33] = second compound 1 µM, first compound 0.316 µM
[34] = second compound 1 µM, first compound 1 µM
[35] = second compound 1 µM, first compound 3.16 µM
[36] = second compound 1 µM, first compound 10 µM
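Further: spheroids exposed to agents for seven days before luminescence read.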
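Wherever viability, T/C is given: luminescent signal used as a stand-in for spheroid viability; percent viability relative to DMSO vehicle control wells taken as 100%.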

Structure (SMILES): C#Cc1c(F)ccc2cc(O)cc(-c3ncc4c(N5CC6CCC(C5)N6)nc(OCC56CCCN5CC(F)C6)nc4c3F)c12 (stereo not drawn) + COc1c(OCCCN2CCOCC2)ccc2c3n(c(=NC(=O)c4cnc(N)nc4)nc12)CCN3
- pIC50 (second compound 0.00316 µM): < 5.00
- pIC50 (second compound 0.01 µM): < 5.00
- pIC50 (second compound 0.0316 µM): < 5.00
- pIC50 (second compound 0.1 µM): < 5.00
- pIC50 (second compound 0.316 µM): 6.31
- pIC50 (second compound 1 µM): > 7.50
- viability, T/C [1]: 104%
- viability, T/C [2]: 116%
- viability, T/C [3]: 114%
- viability, T/C [4]: 103%
- viability, T/C [5]: 112%
- viability, T/C [6]: 111%
- viability, T/C [7]: 103%
- viability, T/C [8]: 101%
- viability, T/C [9]: 102%
- viability, T/C [10]: 114%
- viability, T/C [11]: 103%
- viability, T/C [12]: 103%
- viability, T/C [13]: 92%
- viability, T/C [14]: 95.5%
- viability, T/C [15]: 103%
- viability, T/C [16]: 93%
- viability, T/C [17]: 93%
- viability, T/C [18]: 90.9%
- viability, T/C [19]: 87.1%
- viability, T/C [20]: 73.7%
- viability, T/C [21]: 78.5%
- viability, T/C [22]: 78.2%
- viability, T/C [23]: 73.6%
- viability, T/C [24]: 63.5%
- viability, T/C [25]: 54.7%
- viability, T/C [26]: 49.9%
- viability, T/C [27]: 54.1%
- viability, T/C [28]: 46.4%
- viability, T/C [29]: 44.8%
- viability, T/C [30]: 37.6%
- viability, T/C [31]: 28.4%
- viability, T/C [32]: 27.7%
- viability, T/C [33]: 26.9%
- viability, T/C [34]: 23.5%
- viability, T/C [35]: 24.6%
- viability, T/C [36]: 17.1%

Structure (SMILES): C=CC(=O)N1CCN(c2nc(=O)n(-c3c(C)ccnc3C(C)C)c3nc(-c4c(O)cccc4F)c(F)cc23)C(C)C1 (stereo not drawn) + COc1c(OCCCN2CCOCC2)ccc2c3n(c(=NC(=O)c4cnc(N)nc4)nc12)CCN3
- pIC50 (second compound 0.00316 µM): < 5.00
- pIC50 (second compound 0.01 µM): < 5.00
- pIC50 (second compound 0.0316 µM): < 5.00
- pIC50 (second compound 0.1 µM): < 5.00
- pIC50 (second compound 0.316 µM): 5.46
- pIC50 (second compound 1 µM): > 7.50
- viability, T/C [1]: 119%
- viability, T/C [2]: 100%
- viability, T/C [3]: 112%
- viability, T/C [4]: 97%
- viability, T/C [5]: 100%
- viability, T/C [6]: 99.1%
- viability, T/C [7]: 93.1%
- viability, T/C [8]: 96.6%
- viability, T/C [9]: 104%
- viability, T/C [10]: 108%
- viability, T/C [11]: 97.7%
- viability, T/C [12]: 98.8%
- viability, T/C [13]: 99.8%
- viability, T/C [14]: 101%
- viability, T/C [15]: 92.9%
- viability, T/C [16]: 99%
- viability, T/C [17]: 89.7%
- viability, T/C [18]: 92.7%
- viability, T/C [19]: 78.1%
- viability, T/C [20]: 79.3%
- viability, T/C [21]: 78.7%
- viability, T/C [22]: 80.6%
- viability, T/C [23]: 80.2%
- viability, T/C [24]: 72.7%
- viability, T/C [25]: 48.7%
- viability, T/C [26]: 53.1%
- viability, T/C [27]: 53.2%
- viability, T/C [28]: 46.7%
- viability, T/C [29]: 51.8%
- viability, T/C [30]: 41.2%
- viability, T/C [31]: 28.9%
- viability, T/C [32]: 30.5%
- viability, T/C [33]: 29%
- viability, T/C [34]: 25.6%
- viability, T/C [35]: 26.3%
- viability, T/C [36]: 33.9%

Structure (SMILES): CC(Cn1ccc(-c2ccc(C#N)c(Cl)c2)n1)NC(=O)c1cc(C(C)O)[nH]n1 (stereo not drawn) + COc1c(OCCCN2CCOCC2)ccc2c3n(c(=NC(=O)c4cnc(N)nc4)nc12)CCN3
- pIC50 (second compound 0.00316 µM): < 5.00
- pIC50 (second compound 0.01 µM): < 5.00
- pIC50 (second compound 0.0316 µM): < 5.00
- pIC50 (second compound 0.1 µM): < 5.00
- pIC50 (second compound 0.316 µM): 6.62
- pIC50 (second compound 1 µM): > 7.50
- viability, T/C [1]: 106%
- viability, T/C [2]: 98.6%
- viability, T/C [3]: 101%
- viability, T/C [4]: 96.3%
- viability, T/C [5]: 103%
- viability, T/C [6]: 98.2%
- viability, T/C [7]: 101%
- viability, T/C [8]: 93.2%
- viability, T/C [9]: 98.2%
- viability, T/C [10]: 103%
- viability, T/C [11]: 108%
- viability, T/C [12]: 105%
- viability, T/C [13]: 96.6%
- viability, T/C [14]: 97.4%
- viability, T/C [15]: 87.3%
- viability, T/C [16]: 95.6%
- viability, T/C [17]: 91.9%
- viability, T/C [18]: 84.5%
- viability, T/C [19]: 74.5%
- viability, T/C [20]: 79.9%
- viability, T/C [21]: 78%
- viability, T/C [22]: 76.6%
- viability, T/C [23]: 77%
- viability, T/C [24]: 68.7%
- viability, T/C [25]: 54.6%
- viability, T/C [26]: 50.1%
- viability, T/C [27]: 49.8%
- viability, T/C [28]: 48.2%
- viability, T/C [29]: 40.9%
- viability, T/C [30]: 38.8%
- viability, T/C [31]: 26.9%
- viability, T/C [32]: 28.1%
- viability, T/C [33]: 28.3%
- viability, T/C [34]: 28.2%
- viability, T/C [35]: 24.9%
- viability, T/C [36]: 23.6%

Structure (SMILES): CC1(C)CCC(Nc2ncc(C(F)(F)F)c(-c3c[nH]c4c(P(C)(C)=O)c(C#N)ccc34)n2)CN1 (stereo not drawn) + COc1c(OCCCN2CCOCC2)ccc2c3n(c(=NC(=O)c4cnc(N)nc4)nc12)CCN3
- pIC50 (second compound 0.00316 µM): 5.27
- pIC50 (second compound 0.01 µM): 5.30
- pIC50 (second compound 0.0316 µM): 5.44
- pIC50 (second compound 0.1 µM): > 7.50
- pIC50 (second compound 0.316 µM): > 7.50
- pIC50 (second compound 1 µM): > 7.50
- viability, T/C [1]: 103%
- viability, T/C [2]: 84.7%
- viability, T/C [3]: 87.1%
- viability, T/C [4]: 85%
- viability, T/C [5]: 95.1%
- viability, T/C [6]: 3.27%
- viability, T/C [7]: 90.8%
- viability, T/C [8]: 72.4%
- viability, T/C [9]: 76.6%
- viability, T/C [10]: 81.7%
- viability, T/C [11]: 89.5%
- viability, T/C [12]: 3.28%
- viability, T/C [13]: 59.7%
- viability, T/C [14]: 55.2%
- viability, T/C [15]: 54.9%
- viability, T/C [16]: 60.6%
- viability, T/C [17]: 55.9%
- viability, T/C [18]: 2.59%
- viability, T/C [19]: 41.8%
- viability, T/C [20]: 36.6%
- viability, T/C [21]: 40.8%
- viability, T/C [22]: 38.2%
- viability, T/C [23]: 37.9%
- viability, T/C [24]: 1.87%
- viability, T/C [25]: 28.5%
- viability, T/C [26]: 30.3%
- viability, T/C [27]: 28.9%
- viability, T/C [28]: 24.8%
- viability, T/C [29]: 24.7%
- viability, T/C [30]: 1.42%
- viability, T/C [31]: 19.4%
- viability, T/C [32]: 18.4%
- viability, T/C [33]: 19%
- viability, T/C [34]: 18.1%
- viability, T/C [35]: 18%
- viability, T/C [36]: 1.68%
